We go through 3 molecules from ChEMBL document CHEMBL1250526, “Delphinidin, a dietary anthocyanidin in berry fruits, inhibits human glyoxalase I” (Bioorg Med Chem, 2010).

For orientation: IC50 means the concentration that gives 50% inhibition.

Activity calls are given as the source filed them. The rule behind the calls is not given here.

For one assay, the target named is Lactoylglutathione lyase (Homo sapiens, UniProt Q04760). Briefly: Inhibition of human recombinant glyoxalase 1 assessed as S-D-lactoylglutathione after 15 mins by spectrophotometric analysis.
Sequence of Lactoylglutathione lyase (Q04760 whole entry): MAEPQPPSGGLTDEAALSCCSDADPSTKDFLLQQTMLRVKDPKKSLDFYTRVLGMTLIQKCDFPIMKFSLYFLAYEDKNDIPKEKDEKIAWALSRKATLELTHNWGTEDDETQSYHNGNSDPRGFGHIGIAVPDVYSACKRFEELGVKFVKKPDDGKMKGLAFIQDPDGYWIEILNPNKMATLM
Assay [1] relates to HL-60. Briefly: Antiproliferative activity against human HL60 cells at up to 100 uM after 48 hrs by MTS assay. It counts as functional, cell-based. (In general: Tetrazolium assays rely on reduction of a dye to a coloured formazan, in cell work by metabolically active cells.)
For assay [2], the system named is HL-60. The experiment in a line: Induction of apoptosis in human HL60 cells assessed as nucleosomal DNA fragmentation at up to 100 uM using ethidium bromide staining by agarose gel electrophoresis. It counts as functional, cell-based. Conditions: TDE = time-dependent effect.
The subject of assay [3] is HL-60. The experiment in a line: Antiproliferative activity against human HL60 cells after 48 hrs by MTS assay. The assay is classed as functional, cell-based.
The subject of assay [4] is HL-60. Briefly: Induction of apoptosis in human HL60 cells assessed as nucleosomal DNA fragmentation after 48 hrs using ethidium bromide staining by agarose gel electrophoresis. It counts as functional, cell-based.
The subject of assay [5] is HL-60. Briefly: Antiproliferative activity against human HL60 cells at up to 100 uM by MTS assay. Conditions: TDE = time-dependent effect. The assay is classed as functional, cell-based.
Assay [6] concerns HL-60. Briefly: Antiproliferative activity against human HL60 cells after 24 hrs by MTS assay. Conditions: HL-60, 24 h. The assay is classed as functional, cell-based.

Regarding `Oc1cc(O)c2cc(O)c(-c3ccc(O)c(O)c3)[o+]c2c1` [CYANIDIN CHLORIDE], the IC50 on Lactoylglutathione lyase turned out to be 11.7 µM. The result in the assay on HL-60 [1] was Active.
The like results for `Oc1ccc(-c2[o+]c3cc(O)cc(O)c3cc2O)cc1` [PELARGONIDIN CHLORIDE] were, in that order, 16.4 µM and “Active”.
Take `Oc1cc(O)c2cc(O)c(-c3cc(O)c(O)c(O)c3)[o+]c2c1` [DELPHINIDIN CHLORIDE]: the Activity result is “tde” with HL-60 [2], “Dose-dependent effect” in the assay with HL-60 [3], “Dose-dependent effect” with HL-60 [4] and “tde” in the assay on HL-60 [5]. Moreover, the IC50 on Lactoylglutathione lyase came out at 1.9 µM; in the assay with HL-60 [3] (HL-60, 48 h) it was 40 µM; in the assay on HL-60 [6], 80 µM.
